The values that follow come from patent US12433873B2, “Microtubule polymerization inhibitor prodrugs and methods of using the same” (University of Maryland, Baltimore, priority 2017, dated 2025).

Entries after “also recorded” stand apart in the source; their conditions may differ.

The subject of data set [1] is mdx mice. Nature of the data set: In vivo nerve evoked torque and eccentric injury of the gastrocnemius muscle in mdx mice. To be noted: 20 eccentric contractions of gastrocnemius, FIG. 2D. Further details: species or system mouse. As to the method:
FIGS. 2A-2D illustrate that targeting microtubule density in vivo is solely sufficient to decrease contraction-induced injury in mdx mice. Nerve evoked torque and eccentric injury of the gastrocnemius muscle in vivo (FIG. 2A). […] Normalized torque records of the initial (time=0; wild-type in black, mdx in red) and 20th (grey) eccentric contractions (FIG. 2C).
Skeletal Muscle Function. Evan's blue dye (EBD) (5 μg/μl solution in PBS; 5 μl/g body weight) can be injected I.P. 24 hrs before the assay. The in vivo assessment of the nerve evoked isometric force vs. stimulation frequency relationship of the gastrocnemius can be determined as described in the art. The maximal isometric force (post hoc normalized to estimated cross sectional area) can be taken as the measure of functional quality of the muscle. […]
Susceptibility to contraction injury (skeletal muscle) can be assessed across each treatment cohort. As in FIG. 2, the % force deficit after 20 eccentric contractions of the gastrocnemius muscle can be determined. […] Thirty minutes after the last eccentric contraction, blood (orbital sinus) can be collected and analyzed for creatine kinase (CK) activity. […] After the trials, the muscle tissue can be processed and % EBD positive fibers can be used to quantitate the extent of muscle damage at rest (uninjured leg) or with injury.

The conditions of data set [2]: cited from earlier work.
A further data set has as its system OCY-293 cells. Nature of the data set: In vitro microtubule destabilization in OCY-293 cells stably expressing GFP-tubulin. The data set is classed as cell-based. To be noted: 10-120 minutes, 0.3-100 μM. The procedure: Cell treatment: OCY-293 cells stably expressing GFP-tubulin were cultured in 96-well plates at 37° C. in modified DMEM. […] Control cells were treated with vehicle. DAPI was added to each well to identify the nuclei. At each time point, cells were fixed with 4% paraformaldehyde and stored at 4° C. in the dark until imaging.
Imaging and Analysis: Cells were imaged to assess microtubule structure using fluorescence microscopy (Nikon TIe) with 5 images taken in different locations of each well. The images were digitized in two channels (GFP to visualize tubulin, and therefore microtubules; and DAPI to visualize nuclei). The microtubule area was traced, and nuclei were counted using predictive software (Nikon Elements v4.51) via unbiased automated measurements of each image in each of the wells. The microtubule area was normalized to the number of nuclei.

Data set [3] concerns mdx mice. Nature of the data set: Isoproterenol cardiac stress test in mdx mice. The data set is classed as in vivo, mouse. The procedure:
FIGS. 5A-5D illustrate that colchicine blunts isoproterenol-induced cardiac damage in mdx and prevents cardiac arrhythmias. Wild-type and mdx mice were injected with Evan's blue dye one day prior then underwent an isoproterenol cardiac stress test and heart rate measured. […] Conversely, mdx mice cannot upregulate their heart rate to the same extent (˜2 fold) and only do so for a short period (30-45 min) before suffering severe arrhythmias and cardiac death, with only 10% survival.
Isoproterenol Cardiac Stress and Sarcolemmal Damage of the Heart. Catecholaminergic work-load stress induces atrial fibrillation (AF), ventricular tachycardia (VT) and sudden cardiac death (SCD) in mdx mice and this can be prevented by colchicine treatment (FIG. 5). To assess if colchicine pro-drugs prevent AF, VT and SCD, Evan's blue dye (EBD) (5 μg/μl solution in PBS; 5 μl/g body weight) can be injected I.P. 24 hrs before the assay. Mice are first anesthetized with sodium pentobarbital, and the heart rate monitored by a single-lead electrocardiogram. Isoproterenol is then used to pharmacologically increase the level of mechanical stress imposed on the heart. The mice are killed 3 hours after the administration of isoproterenol and the heart mounted in cryomatrix, sectioned and assessed for sarcolemmal damage.

The next data set concerns mdx muscle fibers. The data set is described as follows: X-ROS, Ca2+ signaling and microtubule density in mdx muscle fibers in vitro. The format is cell-based, mouse. The text has this:
FIGS. 1A-1E illustrate that microtubules underlie dysfunction in DMD. Aggregate DFF signals from WT (Black; n=5) and mdx (Red; n=6) muscle fibers (FIG. 1A). Mean values from A show a significant increase in X-ROS in the mdx (*p<0.05) that is blunted by colchicine (FIG. 1B). X-ROS leads to Ca^2+ influx that is blocked by microtubule depolymerization (FIG. 1C). Microtubule density is elevated in mdx fibers and reduced by colchicine (FIGS. 1D and 1E).
In murine DMD (mdx), it has been discovered that disease-driven alterations in microtubule network density and properties underscore the deleterious excess of Nox2-ROS and Ca^2+ signals in skeletal muscle and heart. Using colchicine, a drug that promotes microtubule depolymerization, it has been shown that reducing microtubule density normalized the dysregulated ROS and Ca^2+ signaling in DMD muscle fibers in vitro (see FIG. 1). […] The significance of these pre-clinical discoveries was bolstered by transcriptional evidence (RNASeq) for microtubule excess in muscle biopsy samples from affected DMD patients.

With `COc1cc(C(C)=O)ccc1O` [apocynin], the “force loss / contraction injury after eccentric contractions” value in the data set on mdx mice [1] is “significant protection from force loss”.

The term half-life denotes the time needed for the level to fall by half in the phase considered. As to `COc1cc2c(c(OC)c1OC)-c1ccc(OC)c(=O)cc1[C@@H](NC(C)=O)CC2` [colchicine], in the data set with mdx mice [1], the “force loss / contraction injury after eccentric contractions” value was “reduced contraction injury; also recorded: significant protection from force loss”. Besides, the “therapeutic window: lethal dose” value in data set [2] (in vivo) is on record as 16-30 × therapeutic dose. The “absorption, median” value in data set [2] (oral) is given as 45%. Further, in data set [2] (orally dosed), the half-life was 1 to 2.7 h and the “time of peak plasma concentration” value is 30 to 90 min. The “microtubule depolymerization (microtubule area normalized to number of nuclei)” value in the data set on OCY-293 cells was “rapid depolymerization at low concentrations”. Further, the “cardiac death and arrhythmia” value in the data set with mdx mice [3] (mdx mice after isoproterenol cardiac stress) is “prevents cardiac death and arrhythmia”. The compound further yielded a survival in the data set with mdx mice [3] (mdx mice after isoproterenol cardiac stress (untreated mdx 10% survival)) of 90%. The “cardiac integrity (histological analysis, Evan's blue)” value with mdx mice [3] (mdx mice, FIGS. 5C and 5D) is reported as “significant preservations of cardiac integrity”. The “increase in cardiac workload” value in the data set on mdx mice [3] (mdx mice, compared to untreated animals) was “supports the increase in cardiac workload significantly”. In the data set on mdx muscle fibers (FIGS. 1D and 1E), the “Microtubule density in mdx fibers” value is reported as “reduced”. In addition, in the data set on mdx muscle fibers (in vitro, FIG. 1), the “dysregulated ROS and Ca2+ signaling in DMD muscle fibers” value is “normalized”. Further, the “X-ROS (DFF signal) increase in mdx muscle fibers” value in the data set with mdx muscle fibers (mdx muscle fibers, FIG. 1B) is “blunted”.

As for `COc1cc2c(c(OC)c1OC)-c1ccc(OC)c(=O)cc1[C@@H](N(C)C(=O)OC(C)OC(C)=O)CC2` (stereo partly shown) [compound 7], in the data set with OCY-293 cells, the “microtubule depolymerization (microtubule area normalized to number of nuclei)” value was “delayed and reduced depolymerization at all concentrations”.

Take `CCCCCCCCCCCCCCCC(=O)OCOC(=O)N(C)[C@H]1CCc2cc(OC)c(OC)c(OC)c2-c2ccc(OC)c(=O)cc21` [compound 10]: the “microtubule depolymerization (microtubule area normalized to number of nuclei)” value in the data set on OCY-293 cells is “dampened depolymerization at higher concentrations only”.
